This data set relates to rodent lifetime carcinogenesis bioassay, tumor incidence TD50. Kind of data set: chronic cancer bioassays in animals – CPDB, compiled studies (AID 1745844).

The text below walks through data of PubChem BioAssay AID1745844 (Carcinogenic Potency Database (CPDB), 2022).

Usually TD50 stands for the dose at which the toxic effect under study appears in half of the subjects.

SMILES strings stand for the structures. Active and inactive are the calls of the source. No rule for the calls is given here.

Take `CCCCCCC(=O)C/C=C/CCCCCCCC(=O)OC`: the TD50 (mouse, strain ST/a, both sexes, in feed, site: all sites, lesion: malignant lymphoma, dosed 42 weeks, study length 84 weeks) was 2940 mg/kg/day (inactive).

As to `Nc1ccc(N=Nc2ccc(-c3ccc(N=Nc4c(S(=O)(=O)O)cc5cc(S(=O)(=O)O)c(N=Nc6ccccc6)c(O)c5c4N)cc3)cc2)c(N)c1`, the TD50 is 32 mg/kg/day (mouse, strain ICR, both sexes, in drinking water, site: any site (literature study), lesion: several types, types named in the paper, dosed 57 weeks, study length 57 weeks); 71.6 mg/kg/day (mouse, strain ICR, both sexes, in drinking water, site: liver, lesion: hepatoma, dosed 57 weeks, study length 57 weeks); 262 mg/kg/day (mouse, strain ICR, both sexes, in drinking water, site: mammary gland, lesion: several types, types named in the paper, dosed 57 weeks, study length 57 weeks); 2.61 mg/kg/day (rat, strain Fischer 344, females, in feed, site: any site (literature study), lesion: several types, types named in the paper, dosed 13 weeks, study length 13 weeks); 2.61 mg/kg/day (rat, strain Fischer 344, females, in feed, site: liver, lesion: hepatocellular adenoma + hepatocellular carcinoma + neoplastic nodule, dosed 13 weeks, study length 13 weeks); 2.61 mg/kg/day (rat, strain Fischer 344, females, in feed, site: liver, lesion: neoplastic nodule, dosed 13 weeks, study length 13 weeks). Further, the TD50 is, setting by setting: (rat, strain Fischer 344, males, in feed, site: any site (literature study), lesion: several types, types named in the paper, dosed 13 weeks, study length 13 weeks) 0.945 mg/kg/day; (rat, strain Fischer 344, males, in feed, site: liver, lesion: hepatocellular adenoma + hepatocellular carcinoma + neoplastic nodule, dosed 13 weeks, study length 13 weeks) 0.945 mg/kg/day; (rat, strain Fischer 344, males, in feed, site: liver, lesion: hepatocellular carcinoma + neoplastic nodule, dosed 13 weeks, study length 13 weeks) 0.945 mg/kg/day; (rat, strain Fischer 344, males, in feed, site: liver, lesion: hepatocellular carcinoma, dosed 13 weeks, study length 13 weeks) 2.22 mg/kg/day.

`O=NN1CCC1`: the TD50 reads like this: (hamster, strain Syrian Golden, males, by gavage, site: any site (literature study), lesion: several types, types named in the paper, dosed 50 weeks, study length 85 weeks) 8.83 mg/kg/day; (hamster, strain Syrian Golden, males, by gavage, site: liver, lesion: hepatocellular adenoma, dosed 50 weeks, study length 85 weeks) 10.7 mg/kg/day; (hamster, strain Syrian Golden, males, by gavage, site: liver, lesion: several types, types named in the paper, dosed 50 weeks, study length 85 weeks) 7.14 mg/kg/day.

Take `CCCCC/C=C\C/C=C\CCCCCCCC(=O)OC`: the carcinogen call (rat, strain Wistar, males, by gavage, site: gastrointestinal tract, lesion: several types, types named in the paper, dosed 30 weeks, study length 87 weeks) was “negative (inactive)” and the carcinogen call (rat, strain Wistar, males, by gavage, site: liver, lesion: one or several types, types not named, dosed 30 weeks, study length 87 weeks) was “negative (inactive)”.

Turning to `C/C=C(/C)C(=O)O[C@H]1CCN2CC=C(COC(=O)[C@@](O)([C@H](C)OC)C(C)(C)O)[C@H]12`, the TD50 is, setting by setting: (rat, strain Fischer 344, females, in feed, site: any site (literature study), lesion: several types, types named in the paper, dosed 92 weeks, study length 104 weeks) 0.102 mg/kg/day; (rat, strain Fischer 344, females, in feed, site: liver + multiple organs, lesion: adenoma, NOS + angiosarcoma + hepatocellular carcinoma + granulocytic leukemia + leukemia + lymphocytic leukemia + lymphoma + undiffer, dosed 92 weeks, study length 104 weeks) 0.141 mg/kg/day; (rat, strain Fischer 344, females, in feed, site: liver, lesion: adenoma, NOS + hepatocellular carcinoma, dosed 92 weeks, study length 104 weeks) 0.453 mg/kg/day; (rat, strain Fischer 344, females, in feed, site: liver, lesion: angiosarcoma, dosed 92 weeks, study length 104 weeks) 0.355 mg/kg/day; (rat, strain Fischer 344, females, in feed, site: liver, lesion: hepatocellular adenoma + hepatocellular carcinoma + neoplastic nodule, dosed 92 weeks, study length 104 weeks) 22.7 mg/kg/day; (rat, strain Fischer 344, females, in feed, site: multiple organs, lesion: granulocytic leukemia + lymphocytic leukemia + undifferentiated leukemia, dosed 92 weeks, study length 104 weeks) 0.387 mg/kg/day. For the same compound, the TD50 (rat, strain Fischer 344, females, in feed, site: multiple organs, lesion: leukemia + lymphoma, dosed 92 weeks, study length 104 weeks) is 0.325 mg/kg/day; the TD50 (rat, strain Fischer 344, males, i.p., site: any site (literature study), lesion: several types, types named in the paper, dosed 56 weeks, study length 76 weeks) turned out to be 0.152 mg/kg/day; the TD50 (rat, strain Fischer 344, males, i.p., site: liver, lesion: hepatocellular carcinoma, dosed 56 weeks, study length 76 weeks) is 0.397 mg/kg/day; the TD50 (rat, strain Fischer 344, males, i.p., site: liver, lesion: several types, types named in the paper, dosed 56 weeks, study length 76 weeks) was 0.341 mg/kg/day; the TD50 (rat, strain Fischer 344, males, i.p., site: lung, lesion: adenoma, dosed 56 weeks, study length 76 weeks) came to 1.33 mg/kg/day; the TD50 (rat, strain Fischer 344, males, i.p., site: skin, lesion: squamous-cell carcinoma, dosed 56 weeks, study length 76 weeks) is 0.794 mg/kg/day. The TD50 by setting is: (rat, strain Fischer 344, males, i.p., site: small intestine, lesion: adenocarcinoma, dosed 56 weeks, study length 76 weeks) 2.73 mg/kg/day; (rat, strain Fischer 344, males, in feed, site: all sites, lesion: leukemia + lymphoma, dosed 98 weeks, study length 104 weeks) 0.514 mg/kg/day; (rat, strain Fischer 344, males, in feed, site: any site (literature study), lesion: several types, types named in the paper, dosed 55 weeks, study length 59 weeks) 0.217 mg/kg/day; (rat, strain Fischer 344, males, in feed, site: any site (literature study), lesion: several types, types named in the paper, dosed 98 weeks, study length 104 weeks) 0.152 mg/kg/day; (rat, strain Fischer 344, males, in feed, site: liver, lesion: adenoma, NOS + angiosarcoma + hepatocellular carcinoma, dosed 98 weeks, study length 104 weeks) 0.25 mg/kg/day; (rat, strain Fischer 344, males, in feed, site: liver, lesion: adenoma, NOS + hepatocellular carcinoma, dosed 98 weeks, study length 104 weeks) 0.908 mg/kg/day. In addition, the TD50 (rat, strain Fischer 344, males, in feed, site: liver, lesion: angiosarcoma, dosed 55 weeks, study length 59 weeks) was 0.688 mg/kg/day; the TD50 (rat, strain Fischer 344, males, in feed, site: liver, lesion: angiosarcoma, dosed 98 weeks, study length 104 weeks) was 0.355 mg/kg/day; the TD50 (rat, strain Fischer 344, males, in feed, site: liver, lesion: carcinoma, dosed 55 weeks, study length 59 weeks) is 0.954 mg/kg/day; the TD50 (rat, strain Fischer 344, males, in feed, site: liver, lesion: hepatocellular adenoma + hepatocellular carcinoma + neoplastic nodule, dosed 98 weeks, study length 104 weeks) came out at 7.43 mg/kg/day.

`CNN`: the TD50 (hamster, strain Syrian Golden, females, in drinking water, site: cecum, lesion: polypoid adenoma, dosed 86 weeks, study length 86 weeks) was 29.8 mg/kg/day; the TD50 (hamster, strain Syrian Golden, females, in drinking water, site: cecum, lesion: several types, types named in the paper, dosed 86 weeks, study length 86 weeks) is 25.8 mg/kg/day; the TD50 (hamster, strain Syrian Golden, females, in drinking water, site: liver, lesion: histiocytoma, malignant, dosed 86 weeks, study length 86 weeks) is 15.4 mg/kg/day; the TD50 (hamster, strain Syrian Golden, females, in drinking water, site: liver, lesion: several types, types named in the paper, dosed 86 weeks, study length 86 weeks) was 30.8 mg/kg/day; the TD50 (hamster, strain Syrian Golden, females, in drinking water, site: lung, lesion: angiosarcoma, dosed 86 weeks, study length 86 weeks) is 297 mg/kg/day (inactive); the TD50 (hamster, strain Syrian Golden, males, in drinking water, site: cecum, lesion: polypoid adenoma, dosed 100 weeks, study length 100 weeks) was 50.7 mg/kg/day. Besides, the TD50 runs as follows: (hamster, strain Syrian Golden, males, in drinking water, site: cecum, lesion: several types, types named in the paper, dosed 100 weeks, study length 100 weeks) 42.1 mg/kg/day; (hamster, strain Syrian Golden, males, in drinking water, site: liver, lesion: histiocytoma, malignant, dosed 100 weeks, study length 100 weeks) 9.2 mg/kg/day; (mouse, strain Swiss, females, in drinking water, site: bile duct, lesion: cholangioma, dosed 62 weeks, study length 62 weeks) 29.2 mg/kg/day; (mouse, strain Swiss, females, in drinking water, site: bile duct, lesion: several types, types named in the paper, dosed 62 weeks, study length 62 weeks) 24.6 mg/kg/day; (mouse, strain Swiss, females, in drinking water, site: liver, lesion: hepatoma, dosed 62 weeks, study length 62 weeks) 51.1 mg/kg/day; (mouse, strain Swiss, females, in drinking water, site: liver, lesion: several types, types named in the paper, dosed 113 weeks, study length 113 weeks) 47.2 mg/kg/day. The TD50 (mouse, strain Swiss, females, in drinking water, site: lung, lesion: adenocarcinoma, dosed 113 weeks, study length 113 weeks) came out at 5.63 mg/kg/day; the TD50 (mouse, strain Swiss, females, in drinking water, site: lung, lesion: adenoma, dosed 62 weeks, study length 62 weeks) was determined as 19.6 mg/kg/day; the TD50 (mouse, strain Swiss, females, in drinking water, site: lung, lesion: adenoma, dosed 113 weeks, study length 113 weeks) was found to be 4.02 mg/kg/day; the TD50 (mouse, strain Swiss, females, in drinking water, site: lung, lesion: several types, types named in the paper, dosed 62 weeks, study length 62 weeks) is 21.4 mg/kg/day; the TD50 (mouse, strain Swiss, females, in drinking water, site: lung, lesion: several types, types named in the paper, dosed 113 weeks, study length 113 weeks) was 2.98 mg/kg/day; the TD50 (mouse, strain Swiss, males, in drinking water, site: all sites, lesion: malignant lymphoma, dosed 112 weeks, study length 112 weeks) stood at 7.85 mg/kg/day. The TD50 reads like this: (mouse, strain Swiss, males, in drinking water, site: bile duct, lesion: several types, types named in the paper, dosed 69 weeks, study length 69 weeks) 22.5 mg/kg/day; (mouse, strain Swiss, males, in drinking water, site: liver, lesion: hepatoma, dosed 69 weeks, study length 69 weeks) 7.25 mg/kg/day; (mouse, strain Swiss, males, in drinking water, site: liver, lesion: several types, types named in the paper, dosed 69 weeks, study length 69 weeks) 4.58 mg/kg/day; (mouse, strain Swiss, males, in drinking water, site: lung, lesion: adenocarcinoma, dosed 112 weeks, study length 112 weeks) 12 mg/kg/day; (mouse, strain Swiss, males, in drinking water, site: lung, lesion: adenoma, dosed 69 weeks, study length 69 weeks) 10.1 mg/kg/day; (mouse, strain Swiss, males, in drinking water, site: lung, lesion: adenoma, dosed 112 weeks, study length 112 weeks) 2.93 mg/kg/day. The TD50 (mouse, strain Swiss, males, in drinking water, site: lung, lesion: several types, types named in the paper, dosed 112 weeks, study length 112 weeks) was 2.51 mg/kg/day. The carcinogen call (mouse, strain Swiss, females, by gavage, site: lung, lesion: one or several types, types not named, dosed 40 weeks, study length 55 weeks) was “negative (inactive)”.

Turning to `C1CCC(C(CC2CCCCN2)C2CCCCC2)CC1` (stereo not given), the carcinogen call (rat, strain Sprague-Dawley, females, in feed, site: liver, lesion: one or several types, types not named, dosed 52 weeks, study length 52 weeks) was “negative (inactive)”; the carcinogen call (rat, strain Sprague-Dawley, females, in feed, site: liver, lesion: one or several types, types not named, dosed 52 weeks, study length 56 weeks) is “negative (inactive)”; the carcinogen call (rat, strain Sprague-Dawley, males, in feed, site: liver, lesion: one or several types, types not named, dosed 52 weeks, study length 52 weeks) is “negative (inactive)”; the carcinogen call (rat, strain Sprague-Dawley, males, in feed, site: liver, lesion: one or several types, types not named, dosed 52 weeks, study length 56 weeks) was “negative (inactive)”.

With `NC(N)=Nc1nc(CSCCNc2nsnc2N)cs1`, the TD50 is, setting by setting: (rat, strain Charles River CD (Sprague-Dawley), females, by gavage, site: gastric mucosa, lesion: carcinoid tumor, malignant, dosed 105 weeks, study length 105 weeks) 6270 mg/kg/day; (rat, strain Charles River CD (Sprague-Dawley), males, by gavage, site: gastric mucosa, lesion: carcinoid tumor, malignant, dosed 105 weeks, study length 105 weeks) 4140 mg/kg/day.
